Experimental findings from patent US12465472B2, “Methods of insect control for an animal, products thereof and methods for their preparation” (priority 2023, dated 2025) are described below.

Assay [1] has as its system Hermetia illucens larvae. As to the kind of experiment: Maggot Inhibitory Assay (MIA) with solutions of insecticide or lidocaine infused into wet chicken feed (Example 3). The class given is in vivo. The conditions noted are these: for insecticide or repellant activity as demonstrated by weight loss and maggot death: solution or neat liquid mixed into wet chicken feed, 5 larvae per dish, ~30 °C. From the text:
Determination of anti-myiasis activity by solutions of insecticide, or a lidocaine solution, was studied by Maggot Inhibitory Assay (MIA).
Seven (7) Test and Control Articles: Wet chicken feed (positive control), Tetrahydrafuran infused feed (THF; carrier control), Isopropyl Myristate infused feed (IPM; permeation enhancer control), Lidocaine solution infused feed (LD), Ivermectin infused feed (Iver), Imidacloprid infused feed (IMI), Spinosad infused feed (Spin).
One (1) test organism: Hermetia illucens larvae, “medium size” 3rd instar feeding (crop-full), mean weight 45-60 mg.
• Contact Time: 7 Days • Contact Temperature: 30±2° C. Test Method Overview: See FIG. 10 for Diagrammatic Overview.
Fresh wet chicken feed (WCF) and Hermetia illucens larvae (3rd instar feeding (crop-full) mean weight 45-60 mg) were obtained within 48 hours of the start of the testing. A small (60 mm diameter) petri dish served as the test container for each replicate. Solutions of the test substances were added onto the fresh WCF, and then the WCF with solution was placed into the center of the container and weighed. The POS control utilized an approximately similar-sized sample of fresh WCF, without any solution being added. Five (5) larvae were placed on each test and control article infused the fresh WCF. The lid was placed on the petri dish and the dish was wrapped in parafilm. The test and control containers were kept in an incubator at ˜30° C. temperature, in the dark. Larvae were observed daily for up to two (2) weeks, noting motility and pupation.
A portion of the solution was retained in a sealed glass vial for possible QA/QC. The WCF sample with solution added was mixed thoroughly and left in a fume hood for up to 72 hours to let THE evaporate off.
Test and control containers had about 2.0 g of test solution infused WCF placed into the center of the wetted filter paper.
Each test and control article were prepared in the individual 60 mm petri dishes in triplicate as described, >48 hours before study start. Five (5) larvae were weighed as a group and recorded for each test and control article. The lid was placed on the petri fish and this was wrapped in parafilm, as described. The test and control containers were kept in the incubator at temperature ˜30° C. in the dark. Larvae are observed daily up to two weeks, noting observations on food consumption, weight and pupation.
The weight of the 5 larvae in each assay replicate were determined and recorded by: (a) removing the lid and weighing the container without the lid (larvae+WCF+container); and (b) taring the scale and gently placing the 5 larvae into the lid and recording the total weight.
The results are shown in FIG. 11 as weight gain per maggot over time. At time 0, 5 maggots were placed into each of 3 pre-weighed petri dishes WCF mixed with the following, as described: nothing (OTS), Tetrahydrofuran (THF), Isopropyl Myristate (IPM), Lidocaine (LD), Ivermectin (Iver), Imidacloprid (IMI), or Spinosad (Spin). At each indicated time point, the weight of maggots was recorded and divided by the number of maggots per dish to calculate the weight per maggot. The weight per maggot at time 0 was then subtracted from that at each time point to calculate the weight gain per maggot. Bars represent the mean±standard deviation of 3 replicate petri dishes. In FIG. 11, statistical significance for each solution, relative to the OTS control, was determined using a repeated measures mixed effects model and each petri dish as the experimental unit (fixed effects were time, solution, and time×solution interaction; random effects were individual petri dishes and residuals); p-values were corrected for multiple comparisons with Dunnett's test. *, p<0.05; **, p<0.01; ***, p<0.001; ****, p<0.0001.

In assay [2] the test system is Hermetia illucens larvae. As to the kind of experiment: Maggot Inhibitory Assay (MIA) with ivermectin and lidocaine bands, unused or previously affixed to Holstein calves (Example 4). The class given is in vivo. The conditions noted are these: positive control solution (1.31 g in 2.35 g THF) in wet chicken feed. From the text:
Evaluation of duration of efficacy of anti-myiasis activity by elastomeric bands loaded/infused with insecticide, with or without an active agent for the topical treatment of pain, was studied via ex vivo tissue and band collection and using Maggot Inhibitory Assay (MIA).
Experimental goal: The aim of this experiment was to assess the long-term function of elastomeric bands infused with insecticide, with or without lidocaine, to inhibit the growth of larvae using the novel MIA test disclosed herein, by evaluating the function of ex vivo tissue biopsies taken from scrotal tissue and drug-infused elastomeric bands which were previously placed on Holstein calves for various time periods (3, 7, 14, 21 and 30 days). The protocol used and presented here is based on published literature (Kotze et al., (2022) “Resistance to dicyclanil and imidacloprid in the sheep blowfly, Lucilia cuprina, in Australia”, Pest Manag Sci, 78:4195-4206).
Ivermectin control: A solution of ivermectin was prepared as a positive control (1.31 g ivermectin into 2.35 g of THF). (n=3)
Exposed ILLB: Elastomeric bands infused with ivermectin and lidocaine that were affixed to scrotal sites and removed at each time point. (n=3×5 experiments=15) […]
Animals were randomly allocated to the study. […] Animal IDs and treatment codes were recorded. […] Animals were monitored for any adverse effects. […]

Regarding `O=[N+]([O-])NC1=NCCN1Cc1ccc(Cl)nc1` [imidacloprid], the “insecticide or repellant activity as demonstrated by weight loss and maggot death” value in assay [1] was “effective insecticide or repellant activity”. Same read-out and setting: next, `C1CCOC1` [Tetrahydrofuran]: “no insecticide or repellant activity”. In the case of ivermectin, in assay [2], the maggot weight change result is given as “a decline or no weight gain”. Besides, in assay [1], the “insecticide or repellant activity as demonstrated by weight loss and maggot death” value is “effective insecticide or repellant activity”. Take spinosad: the “insecticide or repellant activity as demonstrated by weight loss and maggot death” value in assay [1] is “effective insecticide or repellant activity”.

On to `CCN(CC)CC(=O)Nc1c(C)cccc1C` [lidocaine solution, lidocaine], for which, in assay [1] (lidocaine in solution and infused into an elastomeric band), the “activity as an insecticide compared with commercial insecticides (ivermectin, imidacloprid, spinosad)” value is reported as “equivalent to commercial insecticides”. Also, in assay [1], the “insecticide or repellant activity as demonstrated by weight loss and maggot death” value is “effective insecticide or repellant activity”. In the case of `CCCCCCCCCCCCCC(=O)OC(C)C` [isopropyl myristate], in assay [1], the “insecticide or repellant activity as demonstrated by weight loss and maggot death” value is recorded as “no insecticide or repellant activity”.
